Experimental data taken from patent US10011571B2, “Preparation method for aromatic heterocyclic compound used as selective JAK3 and/or JAK1 kinase inhibitor and application of aromatic heterocyclic compound” (SHENZHEN CHIPSCREEN BIOSCIENCES, LTD., priority 2014, dated 2018).

Key:
JAK3 = JAK3 (Homo sapiens (Human), UniProt P52333); test: Eurofins IC50Profiler radiometric kinase assay, JAK3; type: biochemical; details: 9 semilog concentrations
From the text: (§1) A proportion of the compounds of the present invention are subjected to kinase profile screening (KinaseProfiler™)) and enzymatic inhibitory activity (IC50Profiler™)) assay by entrusting Eurofins company (http://www.eurofins.com). Besides the kinases in the JAK family, the kinases that have been screened for their activity also include most Group 3F and Group 4 kinases (ITK, BLK, TBK1, VEGFRs, ERBBs, etc.), and blood system related kinases (Zhang J. et al. 2009, Nat. Rev. Cancer., 9: 28-39). The concentration of the test compound for kinase profile screening is 1 μM, and a gradient of 9 semilog concentration gradients are used to determine IC50. Detection is carried out according to standard procedure of Eurofins Company. Briefly, according to the requirements of different kinase reactions, 0.2 μL test compound (50 μM, dissolved in dimethyl sulfoxide (DMSO)) is added to reaction buffer containing specific kinase (the buffer system containing 20 mM MOPS, 1 mM EDTA, 0.01% Brij-35, 5% Glycerol, 0.1% β-mercaptoethanol, 1 mg/mL BSA, or 50 mM TRIS, 0.1 mM EGTA, 0.1 mM Na3VO4, 0.1% β-mercaptoethanol, 1 mg/mL BSA, based on the type of kinase used). Subsequently, a kinase specific substrate at a final concentration of 50 μM (specific substrate used for specific kinase), 10 mM Mg Acetate and isotope-labeled γ-^33P ATP (radio-activity of about 500 cpm/pmol) are sequentially added to a total volume of 10 μL for the reaction system. After incubation at room temperature for 40 min, the reaction is terminated by adding 3% phosphoric acid solution. The mixture is then transferred to a filter-type low temperature spray dryer (P30 filtermat), and washed by 75 mM phosphoric acid solution for 3 times and by methanol once. After drying, radio-activity is detected. For specific procedure, see the standard procedure provided by Eurofins Company: http://www.eurofins.com/media/9724077/kinaseprofiler_assay_protocol_guide_eurofins_v64.pdf).

Flt4 = Flt4 (Homo sapiens (Human), UniProt P35916); test: Eurofins IC50Profiler radiometric kinase assay, Flt4; type: biochemical; details: 9 semilog concentrations
Sequence of Flt4 (P35916 25-1363, species assumed): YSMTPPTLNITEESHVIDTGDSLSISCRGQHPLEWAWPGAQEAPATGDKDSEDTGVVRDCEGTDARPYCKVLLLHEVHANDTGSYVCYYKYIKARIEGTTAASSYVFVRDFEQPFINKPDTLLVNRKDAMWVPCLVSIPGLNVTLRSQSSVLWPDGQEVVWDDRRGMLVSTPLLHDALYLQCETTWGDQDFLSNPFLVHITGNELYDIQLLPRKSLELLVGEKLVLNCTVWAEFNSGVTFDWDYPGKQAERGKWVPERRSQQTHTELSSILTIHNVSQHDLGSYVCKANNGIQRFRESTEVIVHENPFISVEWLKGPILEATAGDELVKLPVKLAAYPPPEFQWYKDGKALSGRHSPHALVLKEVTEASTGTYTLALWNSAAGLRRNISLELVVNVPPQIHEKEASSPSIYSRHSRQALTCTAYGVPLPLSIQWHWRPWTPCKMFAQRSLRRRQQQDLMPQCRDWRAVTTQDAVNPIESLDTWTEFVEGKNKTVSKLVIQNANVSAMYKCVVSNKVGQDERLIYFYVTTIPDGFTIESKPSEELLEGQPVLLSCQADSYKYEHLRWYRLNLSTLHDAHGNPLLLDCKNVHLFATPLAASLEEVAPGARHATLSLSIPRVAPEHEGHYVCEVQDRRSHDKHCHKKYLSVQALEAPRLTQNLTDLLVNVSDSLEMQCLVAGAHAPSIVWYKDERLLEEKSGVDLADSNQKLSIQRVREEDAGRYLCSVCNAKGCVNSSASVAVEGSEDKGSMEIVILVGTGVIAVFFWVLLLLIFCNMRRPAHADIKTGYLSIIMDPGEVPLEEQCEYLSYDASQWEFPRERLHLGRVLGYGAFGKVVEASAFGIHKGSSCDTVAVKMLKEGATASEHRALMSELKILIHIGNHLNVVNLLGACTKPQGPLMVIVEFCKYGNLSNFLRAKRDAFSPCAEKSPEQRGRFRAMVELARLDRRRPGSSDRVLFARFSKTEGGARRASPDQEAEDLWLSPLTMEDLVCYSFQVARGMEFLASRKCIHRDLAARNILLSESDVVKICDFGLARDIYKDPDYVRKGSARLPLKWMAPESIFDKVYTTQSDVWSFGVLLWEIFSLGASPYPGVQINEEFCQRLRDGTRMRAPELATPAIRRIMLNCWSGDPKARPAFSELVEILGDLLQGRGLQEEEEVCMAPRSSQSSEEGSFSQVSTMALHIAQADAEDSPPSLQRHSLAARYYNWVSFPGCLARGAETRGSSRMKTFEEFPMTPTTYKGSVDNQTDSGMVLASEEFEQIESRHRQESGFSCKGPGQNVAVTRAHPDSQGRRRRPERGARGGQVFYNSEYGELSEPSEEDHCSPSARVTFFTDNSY
From the text: as §1

CTLL-2 cells = test: Cell growth activity assay (MTS), CTLL-2 cell model; type: cell-based, mouse; details: Mus musculus; for activity at 0.3 µM: CTLL-2, 300 nM, 24 h, read-out: CTLL-2 % growth rate @300 nM; for GI50: CTLL-2, 24 h
How it was run: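 Mouse IL-2-dependent T-cell line seeded ~20,000 cells/well, compounds added after 24 h at gradient concentrations (top 10 μM; CTLL-2 evaluation at 300 nM), cultured another 24 h. MTS/PMS added, 2 h at 37° C, absorbance 490 nm; inhibition vs DMSO control after negative-control background subtraction, GI50 calculated; triplicate.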

HUVEC cells = test: Cell growth activity assay (MTS), HUVEC cell model; type: cell-based; details: Homo sapiens, 72 h; for activity at 10 µM: read-out: HUVEC % growth rate @10 μM
From the text: MTS assay is a routine method for cell toxicity detection. The basic principle is based on the capacity of dehydrogenase in the mitochondria of living cells to reduce a novel yellow […] MTS to formazan, so that the amount of living cells is proportional to the amount of formazan product by detecting the absorbance at 490 nm (OD), thereby speculating the amount of living cells according to the OD value, and understanding the capacity of the test compound to inhibit the growth of cells or to kill the cells.
HeLa cell is a human cervical cancer cell line, and belongs to epithelial tumor cell line; HUVEC is a human umbilical vein endothelial cell, and belongs to primary endothelial cell; both types of cells express all subtypes except for JAK3.
The change of JAK kinase activity has no significant influence on other cell types except for the immune cells, and both cell models mentioned above are mainly used to evaluate whether there are any other kinase targets besides JAK kinases or there are nonselective cell toxicities.
In this experiment, a cultured cell model is incubated with the test compounds at different concentrations for a specific duration. The effect of the treatment by the test compound on the growth of cells is detected using MTS assay.
MTS is performed according to routine procedure in a 96-well plate.
The model cells are inoculated into each well of the 96-well plate at an appropriate concentration (about 5000 cells/well). After 24 h, the test compounds are added at different concentration gradients (the highest final concentration is 40 μM). A solvent control (DMSO) and a negative control are also performed at the same time. Each experiment is repeated for 3 times. The cells are detected after cultured for another 72 h.
After all culture medium is aspirated out of the well, 100 μL fresh medium and 20 μL pre-formulated mixture of MTS and PMS (in a ratio of 20:1) are added to each well. After incubation at 37° C. for 2 h, it is then detected by a microplate reader (490 nm).
The cell growth inhibitory rate and GI50 of the test compound are calculated as above.
Based on the above method, cytological evaluation is performed to the compounds described herein (for the detection of CTLL-2 cell, the concentration of the test compound is 300 nM; […]).

HeLa cells = test: Cell growth activity assay (MTS), HeLa cell model; type: cell-based, human; design: activity: dose or concentration left out as unconfirmed; details: Homo sapiens, HeLa, 72 h; for activity: read-out: HeLa % growth rate
How it was run: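 HeLa human cervical cancer cells were plated at about 5000 cells/well in a 96-well plate. After 24 h, test compounds were added in concentration gradients (highest final concentration 40 μM), alongside a DMSO solvent control and a negative control. After another 72 h, the medium was replaced with 100 μL fresh medium plus 20 μL MTS/PMS (20:1). Plates were incubated 2 h at 37° C. and absorbance was read at 490 nm to give growth inhibition and GI50.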

Sequence of JAK3 (P52333 whole entry, species assumed): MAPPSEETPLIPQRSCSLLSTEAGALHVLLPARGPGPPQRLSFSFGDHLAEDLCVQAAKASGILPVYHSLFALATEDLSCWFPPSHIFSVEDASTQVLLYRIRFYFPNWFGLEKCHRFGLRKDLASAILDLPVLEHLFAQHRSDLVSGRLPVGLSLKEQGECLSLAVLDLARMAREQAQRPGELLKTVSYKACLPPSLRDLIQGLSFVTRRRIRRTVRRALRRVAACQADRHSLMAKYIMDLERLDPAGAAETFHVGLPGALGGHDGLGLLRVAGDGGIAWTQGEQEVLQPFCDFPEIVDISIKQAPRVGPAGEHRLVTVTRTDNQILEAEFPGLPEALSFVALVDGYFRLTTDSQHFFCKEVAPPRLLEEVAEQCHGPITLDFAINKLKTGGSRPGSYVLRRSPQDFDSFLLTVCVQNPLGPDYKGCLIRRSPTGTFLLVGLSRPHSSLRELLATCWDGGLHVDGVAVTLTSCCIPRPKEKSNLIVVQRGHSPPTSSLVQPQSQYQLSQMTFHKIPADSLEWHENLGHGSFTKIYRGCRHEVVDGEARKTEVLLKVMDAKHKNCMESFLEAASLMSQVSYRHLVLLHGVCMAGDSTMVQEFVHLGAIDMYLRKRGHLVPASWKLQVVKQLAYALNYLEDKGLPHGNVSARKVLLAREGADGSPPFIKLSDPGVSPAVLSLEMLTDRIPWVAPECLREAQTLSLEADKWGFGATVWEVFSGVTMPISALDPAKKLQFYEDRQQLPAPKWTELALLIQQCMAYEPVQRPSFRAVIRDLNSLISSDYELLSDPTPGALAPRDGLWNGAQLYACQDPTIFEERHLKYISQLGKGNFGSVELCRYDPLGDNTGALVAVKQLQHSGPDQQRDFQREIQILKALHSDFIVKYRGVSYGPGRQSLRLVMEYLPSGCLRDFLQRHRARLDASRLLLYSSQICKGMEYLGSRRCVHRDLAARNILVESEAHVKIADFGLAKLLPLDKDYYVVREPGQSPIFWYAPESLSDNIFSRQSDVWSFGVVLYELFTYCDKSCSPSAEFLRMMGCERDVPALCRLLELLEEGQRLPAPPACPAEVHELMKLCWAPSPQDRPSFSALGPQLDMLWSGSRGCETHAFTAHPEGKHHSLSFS

SMILES | IC50 (JAK3) [nM] | IC50 (Flt4) [nM] | activity at 0.3 µM (CTLL-2 cells) [%] | GI50 (CTLL-2 cells) [nM] | activity at 10 µM (HUVEC cells) [%] | GI50 (HUVEC cells) [nM] | GI50 (HeLa cells) [nM] | activity (HeLa cells) [%]
C=CC(=O)N(C)c1cc(Nc2ncc(Cl)c(NCCCNC(=O)c3ccc(C#N)cc3)n2)ccc1F [Example 7, N-(3-(5-chloro-2-(4-fluoro-3-(N-methylacrylamido)phenylamino)pyrimidinyl-4-amino)propyl)-4-cyano-benzamide] | 11 | 107 | 10 | 116 | 94 | > 40000 | > 40000 | 98
C=CC(=O)N(C)c1cc(Nc2ncc(Cl)c(NCCCNC(=O)c3ccc(F)cc3)n2)ccc1F [Example 23, N-(3-(5-chloro-2-(4-fluoro-3-(N-methylacrylamido)phenylamino)pyrimidinyl-4-amino)propyl)-4-fluorobenzamide] | 11 | 42 | 4 | 140 | 112 | > 40000 | – | 96
C=CC(=O)N(C)c1cc(Nc2ncc(Cl)c(NCCCNC(=O)c3ccc(C(F)(F)F)cc3)n2)ccc1F [Example 22, N-(3-(5-chloro-2-(4-fluoro-3-(N-methylacrylamido)phenylamino)pyrimidinyl-4-amino)propyl)-4-trifluoromethylbenzamide] | 21 | > 10000 | 7 | 249 | 116 | > 40000 | > 40000 | 78
